According to ChEMBL document CHEMBL5370556, “Optimization, and biological evaluation of 3-O-β-chacotriosyl betulinic acid amide derivatives as novel small-molecule Omicron” (Eur J Med Chem, 2023):
Active and inactive are the calls of the source. The rule behind the calls is not given here.

Tests used:
Type in all cases: functional, organism-based
[1] = tested on: SARS-CoV-2; assay: Antiviral activity against luciferase-expressing pseudovirus encoding SARS-CoV-2 Omicron expressing S protein L303A/E309A mutant infected in human 293T/ACE2 cells assessed as reduction of viral growth measured after 48 hrs by luciferase assay; settings: Severe acute respiratory syndrome coronavirus 2
[2] = tested on: SARS-CoV-2; assay: Antiviral activity against luciferase-expressing pseudovirus encoding SARS-CoV-2 Omicron expressing S protein L303A/E309A/R765A/K964A mutant infected in human 293T/ACE2 cells assessed as reduction of viral growth at 1.25 to 10 uM measured after 48 hrs by luciferase assay; settings: Severe acute respiratory syndrome coronavirus 2, dose 1.25-10 µM
[3] = tested on: SARS-CoV-2; assay: Antiviral activity against luciferase-expressing pseudovirus encoding SARS-CoV-2 Omicron expressing S protein R765A/K964A mutant infected in human 293T/ACE2 cells assessed as reduction of viral growth measured after 48 hrs by luciferase assay; settings: Severe acute respiratory syndrome coronavirus 2

SMILES: C=C(C)[C@@H]1CC[C@]2(C(=O)Nc3ccc4ccccc4c3)CC[C@]3(C)[C@H](CC[C@@H]4[C@@]5(C)CC[C@H](O[C@@H]6O[C@H](CO)[C@@H](O[C@@H]7O[C@@H](C)[C@H](O)[C@@H](O)[C@H]7O)[C@H](O)[C@H]6O[C@@H]6O[C@@H](C)[C@H](O)[C@@H](O)[C@H]6O)C(C)(C)[C@@H]5CC[C@]43C)[C@@H]12
- Activity [1]: Active
- Activity [2]: inactive
- Activity [3]: Active
